Data reported in PubChem BioAssay (NCI).
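Cells were grown in 96-well plates and exposed to each compound for 48 hours at five concentrations; endpoints were interpolated linearly between bracketing concentrations, or set to the highest concentration if not reached. The concentration for full growth arrest is given as TGI.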

What was measured:
Assay in all cases: growth of human tumour cells (NCI), 48 h
UACC-257 melanoma = system: UACC-257 melanoma
MDA-MB-231 breast = system: MDA-MB-231 breast
M14 melanoma = system: M14 melanoma
RXF 393 renal = system: RXF 393 renal
MDA-MB-435 = system: MDA-MB-435
SF-539 CNS = system: SF-539 CNS
NCI-H23 lung = system: NCI-H23 lung
RPMI-8226 leukemia = system: RPMI-8226 leukemia
SF-295 CNS = system: SF-295 CNS
MDA-N = system: MDA-N
EKVX NSCLC = system: EKVX NSCLC
A498 renal = system: A498 renal
KM12 colon = system: KM12 colon
HOP-92 NSCLC = system: HOP-92 NSCLC
A549 NSCLC = system: A549 NSCLC
HCC-2998 colon = system: HCC-2998 colon
SR leukemia = system: SR leukemia
HCT-15 colon = system: HCT-15 colon
786-0 renal = system: 786-0 renal
SK-MEL-2 melanoma = system: SK-MEL-2 melanoma
NCI/ADR-RES ovarian = system: NCI/ADR-RES ovarian
SF-268 CNS = system: SF-268 CNS
OVCAR-8 ovarian = system: OVCAR-8 ovarian
COLO 205 colon = system: COLO 205 colon
HOP-62 NSCLC = system: HOP-62 NSCLC
OVCAR-4 ovarian = system: OVCAR-4 ovarian
UO-31 renal = system: UO-31 renal
LOX IMVI melanoma = system: LOX IMVI melanoma
K-562 leukemia = system: K-562 leukemia
SW-620 colon = system: SW-620 colon
OVCAR-5 ovarian = system: OVCAR-5 ovarian
ACHN renal = system: ACHN renal
NCI-H226 lung = system: NCI-H226 lung
CAKI-1 renal = system: CAKI-1 renal
HCT-116 colon = system: HCT-116 colon
SNB-19 CNS = system: SNB-19 CNS
DU-145 prostate = system: DU-145 prostate
HT29 colon = system: HT29 colon
IGROV1 ovarian = system: IGROV1 ovarian
OVCAR-3 ovarian = system: OVCAR-3 ovarian
PC-3 prostate = system: PC-3 prostate
NCI-H460 lung = system: NCI-H460 lung
MOLT-4 leukemia = system: MOLT-4 leukemia
BT-549 breast = system: BT-549 breast
MCF7 breast = system: MCF7 breast
SK-OV-3 ovarian = system: SK-OV-3 ovarian
T-47D breast = system: T-47D breast
UACC-62 melanoma = system: UACC-62 melanoma
MALME-3M melanoma = system: MALME-3M melanoma
HL-60(TB) leukemia = system: HL-60(TB) leukemia
TK-10 renal = system: TK-10 renal
HS 578T breast = system: HS 578T breast
SNB-75 CNS = system: SNB-75 CNS
SN12C renal = system: SN12C renal
SK-MEL-5 melanoma = system: SK-MEL-5 melanoma
NCI-H522 lung = system: NCI-H522 lung
U251 CNS = system: U251 CNS
SK-MEL-28 melanoma = system: SK-MEL-28 melanoma
CCRF-CEM leukemia = system: CCRF-CEM leukemia

Measured: TGI

O=C(O)C(Oc1nc(=S)[nH]c(=S)[nH]1)(c1ccc(Cl)cc1)c1ccc(Cl)cc1
not listed: CCRF-CEM leukemia
> 100 µM: all other assays above

COc1cc(CS(=O)c2ccc(O)cc2)cc(OC)c1OC (stereo not drawn)
not listed: HCC-2998 colon | OVCAR-4 ovarian
> 100 µM: all other assays above

CC(=O)Nc1ccccc1NC1CC(C)N(c2ccccc2)N1C(C)=O (stereo not drawn)
not listed: SF-539 CNS | A498 renal | SK-MEL-2 melanoma | NCI/ADR-RES ovarian | UO-31 renal | LOX IMVI melanoma | OVCAR-5 ovarian | ACHN renal | NCI-H226 lung | HCT-116 colon | SNB-19 CNS | OVCAR-3 ovarian | NCI-H460 lung | BT-549 breast | HS 578T breast | NCI-H522 lung | U251 CNS
> 10 µM: all other assays above

C=C(C)CNC(=S)N(N)c1ccc2ccccc2c1
76.8 µM: UACC-62 melanoma
88.9 µM: EKVX NSCLC
77.4 µM: OVCAR-5 ovarian
28.7 µM: HCT-15 colon
71.4 µM: TK-10 renal
62.4 µM: KM12 colon
not listed: A498 renal | SK-MEL-2 melanoma | CAKI-1 renal
> 100 µM: all other assays above
